From US20230321185A1, “METHOD FOR TREATMENT OF TYPE-1 DIABETES IN A SUBJECT IN NEED THEREOF” (priority 2021, published 2023)

What was measured:
Format in all cases: in vivo, Balb/c mice
[1] = test system: insulin+ and glucagon+ cells of pancreatic islets; assay: Immunohistochemistry of pancreas sections, insulin+ and glucagon+ cells; settings: type 1 diabetic mice
Description: (§1) Each of the normal (N) (n=20) and diabetic (D) (n=20) groups was divided into four subgroups. The first group (N1 and D1) (n=5) received 6.7 mg/kg intraperitoneally growth hormone for two weeks. The second group (N2 and D2) (n=5) administrated 0.185 mg/kg intraperitoneally magainin II for approximately four weeks. The third group (N3 and D3) (n=5) first received 0.185 mg/kg of magainin II for four weeks, and then 6.7 mg/kg of growth hormone for two weeks. Finally, the fourth group (N4 and D4) (n=5) received only an equal volume of physiological saline instead of these treatments.
Fixed tissue in 4% paraformaldehyde for 30 min at 4° C., embedded in paraffin and applied to slides. The prepared 6-μm sections were assayed as described previously. The following primary antibodies were used in these assays: rabbit anti-insulin antibody (ab63820) (1/500), mouse anti-glucagon antibody sc-514592 (1/500), mouse anti-vimentin antibody sc-6260 (1/500), rabbit recombinant anti-Ki67 (ab197547) (1/500), rat anti-CD3 antibody (ab11089) (1/500), mouse anti-CD19 antibody (sc-373897) (1/500). […]
(§2) All values are depicted as mean±SEM and considered significant if p<0.05. […] Data were analyzed using GraphPad Prism software and the results of groups were compared with the ANOVA test.

[2] = Glucose tolerance test (GTT) at the end of the treatment; settings: for effect on blood glucose levels both in FBS and GTT: diabetic mice
Description: as §1
(§3) FBS measurements before the treatment and weekly during the treatment, and glucose tolerance test (GTT) at the end of the treatment were performed. The pancreatic tissue was quickly removed and placed in a cold phosphate buffer saline (PBS). Some of the extracted tissues for additional tests were stored in a freezer (−80° C.) and some were immersed in 4% paraformaldehyde (PFA) for immunohistochemical staining.
(§4) FBS levels were measured after fasting mice for 6 h (7:00-13:00) with an Accu-Chek glucometer via tail vein. Also in the glucose tolerance test, six hours after the mice were deprived of food (7:00-13:00), the first FBS was measured and after that mouse administrated glucose (2 g/kg bodyweight, intraperitoneally), and then at the indicated time points post-injection, blood glucose levels were measured.

P-STAT5 = assay: Western blot of pancreatic P-STAT5; settings: for P-STAT5 expression increase in comparison with control group: diabetic mice, vs D4 (saline); for P-STAT5 expression increase compared with control group: normal mice, vs N4 (saline)
Description: as §1
(§5) Proteins were extracted in RIPA buffer which are containing Tris-HCl buffer (100 mM, pH 7.5), ethylene diamine tetra acetic acid (EDTA, 10 mM), sodium pyrophosphate (10 mM), sodium fluoride (0.1 mM), sodium orthovanadate (10 mM), phenylmethylsulphonyl fluoride (PMSF, 2 mM), and aprotinin (10 mg/ml). The pancreas extracts were vortexed for 30 min frequently at 4° C. The homogenates were centrifuged at 12,000 rpm for 20 min at 4° C. The supernatants were stored in an −80° C. freezer. Total protein concentration was determined by the Lowry method.
(§6) De-freeze sample was added to loading buffer and dithiothreitol 0.5 M solution, then heated for 5 min at 95° C. Sodium dodecyl sulfate-polyacrylamide gel electrophoresis (SDS PAGE) and then protein transfer to a polyvinylidene difluoride (PVDF) blotting membrane was performed. […] Finally, a result image was developed based on Western Blot-ECL ([…]) Development Protocol.
(§7) All values are depicted as mean±SEM and considered significant if p<0.05. The arbitrary optical density unit was acquired using ImageJ software (version 1.46). Data were analyzed using GraphPad Prism software and the results of groups were compared with the ANOVA test.

P-ERK = assay: Western blot of pancreatic P-ERK; settings: normal mice, vs N4 (saline)
Description: as §1
as §5, with “method. […]” for “method.”
as §2

PAX4 = assay: Western blot of pancreatic PAX4; settings: normal mice, vs normal control group
Description: as §1
as §5, with “method. […]” for “method.”
as §2

[3] = Fasting blood sugar (FBS) in normal and STZ-induced type 1 diabetic mice; settings: STZ-induced type 1 diabetic mice, IP; for mean percentage of FBS changes decreased by: end of treatment, value is a decrease (untreated D4 increased by 49.23%)
Description: In a 14-day period, diabetes type 1 was induced in a group of mice via injecting multiple low doses of Streptozotocin (STZ). Also, the other group of mice received an equal volume of citrate buffer (pH 4.5) intraperitoneally (I.P.) in the same procedure that was called the normal group.
as §1, §3
Diabetes type 1 was induced in a group of mice via injecting multiple low doses of Streptozotocin (STZ) (40 mg/kg, intraperitoneal) for five consecutive days. The STZ dissolved in the 50 mM sodium citrate buffer (pH 4.5) to a final concentration of 4 mg/ml, immediately prior to injection. Nine days after the last STZ injection, all the mice have their FBS (fasting blood sugar) over 200 mg/dl were considered as type 1 diabetic mice group.
as §4
The fasting blood sugars of mice in all diabetic and normal groups were measured before the treatment and weekly during the treatments. At the end of the treatments, the percentage of FBS changes were calculated. The average percentage of FBS alterations in each group was then determined. Finally, the average result of each group was compared and analyzed with other groups by prism software.

P-S6 = assay: Western blot of pancreatic P-S6 (mTOR pathway activity)
Description: as §1, §5, §6, §7
The activity of mTOR pathway was appraised by evaluating the changes in ribosomal P-S6 expression. As a downstream factor of the mTOR pathway, results of pancreatic P-S6 expression in all treated diabetic and normal mice were compared with their control groups. Therefore, changes in P-S6 expression proportionally reflects the activity of mTOR pathway. […] Consequently, GH pulsatile secretion and temporally treatment period in this study via transient increase in mTOR activity can induce and enhance anabolic growth during the treatment, such as cell growth, ribosomal biogenesis, and protein synthesis.

Substance	beta cell regeneration [1]	effect on blood glucose levels both in FBS and GTT [2]	blood sugar course in GTT ([2]; normal mice, glucose 2 g/kg IP)	P-STAT5 expression increase in comparison with control group (P-STAT5)	P-STAT5 expression increase compared with control group (P-STAT5)	P-ERK expression increase in comparison with control group (P-ERK)	Pax4 expression increase in comparison with control group (PAX4)	approximate improvement rate of fasting blood sugar in comparison with untreated control diabetic group [3]	mean percentage of FBS changes decreased by [3]	P-S6 expression increase in comparison with control group (P-S6; diabetic mice, vs D4 (saline))	P-S6 expression increase in comparison with control group (P-S6; normal mice, vs N4 (saline))
GH: Human Growth Hormone produced by EXIR under the brand name Exitropin 4 IU (1.3 mg) (Somatropin), lyophilized powder	effective beta cell regeneration	less attenuating effect	higher than in other normal groups	not statistically significant	slight and non-significant increase	no significant difference	~135%	~57.43%	8.2%	no significant difference	slight and not significant
GIGKFLHSAKKFGKAFVGEIMNS (listed as Xenopus laevis) [magainin, cationic, amphipathic, a-helical antimicrobial peptide with twenty-three amino acids, synthesized by Biomatik]	effective beta cell regeneration	greatest effect on reducing blood sugar	–	not statistically significant	slight and non-significant increase	no significant difference	~125%	~97.13%	47.9%	no significant difference	slight and not significant
